System: B6 mice (C57BL)
Experiment: Blood glucose in B6 mice, high- versus low-molecular-weight polyphenols
Assay type: in vivo
Details: 0.27 mg/day intraperitoneal, 15 days
Method: The procedures for the experiment were similar to those employed in Example 7. In this experiment, B6 mice (C57BL; purchased from CLEA Japan, Inc.) were used. […] The low-molecular-weight polyphenol group was given a PBS solution of epicatechin daily through intraperitonal injection at a dose of 0.27 mg/day. Blood samples were collected on the first day of the administration and 15 days thereafter for the measurement of blood glucose levels. […] The horizontal axis in the figure represents the number of days from the start of the administration. The vertical axis represents percentage (%) changes in blood glucose based on the blood glucose level on the first day at 100.

## Oc1cc(O)c2c(c1)O[C@H](c1ccc(O)c(O)c1)[C@H](O)C2 [low-molecular-weight polyphenols, epicatechin]
  decrease in blood glucose relative to the first day (100): little change

From patent publication US20090047368A1, “Polymeric polyphenol extracted from fermented tea, therapeutic agent for mitochondrial disease, preventive/therapeutic agent for diabetes mellitus, and food or beverage” (University Of Tsukuba, priority 2004, published 2009)
